pIC50: −log10 of the molar value. *1 amine or outer side, *2 acyl side, *3 side chain or, on linkers, in order; H or OH if unused. Where a SMILES comes first, the peptide text is derived from it. Bridges are numbered along the chain shown (N, C = ends). Side-chain parts run from the residue outwards. [ ]: non-standard residue; d: D form. The star is where a group is joined. X36 = C[N+](C)(C)CCOCCOCCC(=O)C[C@H](CCCCCC(=O)COCCOCCNC(=O)COCCOCCNC(=O)CC[C@H](NC(=O)CCCCCCCCCCCCCCCCC(=O)O)C(=O)O)C(=O)*; X9 = O=C(O)CCCCCCCCCCCCCCCCC(=O)N[C@@H](CCC(=O)NCCOCCOCCOCCOCCOCCOCCOCCOCCOCCOCCOCCCCCC(=O)*)C(=O)O; Me3N+(CH2)2O(CH2)2O(CH2)2CO = C[N+](C)(C)CCOCCOCCC(=O)*; PEG12 = NCCOCCOCCOCCOCCOCCOCCOCCOCCOCCOCCOCCOCCC(=O)O; CH2CH2OCH2CH2OCH2CH2NMe3+ = C[N+](C)(C)CCOCCOCC*; Trp(7-Me) = Cc1cccc2c(C[C@H](N)C(=O)O)c[nH]c12; C18 diacid = O=C(O)CCCCCCCCCCCCCCCCC(=O)*; C16 diacid = O=C(O)CCCCCCCCCCCCCCC(=O)*; X6 = CN(CC[C@H](N[*:1])C(=O)[*:2])[*:3]; γGlu = O=C(O)[C@H](CCC(=O)[*:2])N[*:1]; 2Nal = N[C@@H](Cc1ccc2ccccc2c1)C(=O)O; AEF = NCCOc1ccc(C[C@H](N)C(=O)O)cc1; X2 = C[N+](C)(C)C[C@@H](CC(=O)O)N*; 3Pal = N[C@@H](Cc1cccnc1)C(=O)O; Lys(Me) = CNCCCC[C@H](N)C(=O)O; Pen = CC(C)(S)[C@H](N)C(=O)O; Suc = O=C(CCC(=O)[*:2])[*:1]; Thp = NC1(C(=O)O)CCOCC1; X1 = C[N+](C)(C)CCCCC*; AEEA = NCCOCCOCC(=O)O; Sar = CNCC(=O)O
Key:
IL-23R = molecular target: T1, IL-23R (Homo sapiens, UniProt Q5VWK5); assay: IL23R Reporter Assay; assay type: cell-based; details: HEK293 cells containing IL-23R, IL-12Rβ1 and STAT-inducible firefly luciferase reporter; 10 ng/mL IL-23 (EC90); 5 h
T1 construct: HEK293 cells containing IL-23R, IL-12Rβ1 and a firefly luciferase reporter gene driven by a STAT-inducible promoter (Promega); host or cells: HEK293
T1 sequence (Q5VWK5 24-629): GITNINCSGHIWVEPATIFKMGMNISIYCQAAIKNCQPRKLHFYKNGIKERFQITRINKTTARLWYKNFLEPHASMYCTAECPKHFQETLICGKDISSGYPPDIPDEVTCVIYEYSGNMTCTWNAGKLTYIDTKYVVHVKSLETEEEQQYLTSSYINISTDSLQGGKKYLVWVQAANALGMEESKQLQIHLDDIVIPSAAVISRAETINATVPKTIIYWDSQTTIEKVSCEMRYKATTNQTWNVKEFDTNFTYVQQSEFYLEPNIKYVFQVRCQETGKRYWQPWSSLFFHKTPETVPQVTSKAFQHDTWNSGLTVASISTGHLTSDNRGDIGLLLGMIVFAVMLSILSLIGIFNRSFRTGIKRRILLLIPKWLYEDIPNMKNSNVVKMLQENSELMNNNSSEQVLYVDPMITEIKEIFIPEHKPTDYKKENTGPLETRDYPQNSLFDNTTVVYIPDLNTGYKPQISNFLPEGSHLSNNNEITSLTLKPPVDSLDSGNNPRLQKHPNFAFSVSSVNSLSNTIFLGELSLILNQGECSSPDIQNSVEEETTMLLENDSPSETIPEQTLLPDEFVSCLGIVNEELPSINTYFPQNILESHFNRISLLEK
Outline: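 IC50 values were fitted with a 4-parameter Hill equation to luciferase signal, scaled between IL-23-only wells (0% inhibition) and 30 μM reference inhibitor (100%). The readout was a STAT-inducible reporter in IL-23R/IL-12Rβ1 HEK293 cells, stimulated with added 10 ng/mL IL-23 (EC90) for 5 h at 37° C and developed with BioGlo.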

[1] = test system: IL-23-stimulated phosphorylated STAT3 in peripheral blood mononuclear cells (PBMCs); assay: PBMC pSTAT3 Assay; assay type: cell-based; details: PBMCs from healthy donors; 30 min preincubation with peptide; IL-23 5 ng/mL for 30 min; phospho-STAT3 by MSD
Outline: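 Phospho-STAT3 quantified by Meso Scale assay in lysates of PBMCs exposed to IL-23 (5 ng/mL, 30 min, 37 °C) after 30 min peptide pretreatment. Cells were cryopreserved donor PBMCs activated 4 days with anti-CD3 plus IL-1β (100 ng/mL) and starved ~4 h; IC50 reported.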

Compound | pIC50 (IL-23R) | pIC50 [1]
CC(=O)N[C@H](CCCNC(=N)N)C(=O)N[C@@H]1C(=O)N[C@@H](CC(N)=O)C(=O)N[C@@H]([C@@H](C)O)C(=O)N[C@@H](Cc2c[nH]c3c(C)cccc23)C(=O)N[C@@H](CCCCNC(=O)COCCOCCNC(=O)COCCOCCNC(=O)CC[C@H](NC(=O)CCCCCCCCCCCCCCC(=O)O)C(=O)O)C(=O)N[C@H](C(=O)N[C@@H](Cc2ccc(OCCCCC[N+](C)(C)C)cc2)C(=O)N[C@@H](Cc2ccc3ccccc3c2)C(=O)NC2(C(=O)N[C@@H](CCC(=O)O)C(=O)N[C@@H](CC(N)=O)C(=O)N[C@@H](Cc3cccnc3)C(=O)N(C)CC(=O)N(C)C)CCOCC2)C(C)(C)SSC1(C)C [compound 92, MeCO-r-Pen(3)-N-T-7MeW-K(PEG2PEG2gEC18OH)-Pen(3)-TMAPF-2Nal-THF-E-N-3Pya-Sar-CONH2] (Ac-[dR][Pen]NT[Trp(7-Me)]K([AEEA-AEEA-γGlu-C16 diacid])[Pen]Y(X1)[2Nal][Thp]EN[3Pal][Sar]-NMe2; disulfide 2-7) | 6.30 to 7.30 | > 9.30
CC(=O)N[C@H](CCCNC(=N)N)C(=O)N[C@@H]1C(=O)N[C@@H](CC(N)=O)C(=O)N[C@@H]([C@@H](C)O)C(=O)N[C@@H](Cc2c[nH]c3c(C)cccc23)C(=O)N[C@@H](CCCCNC(=O)CCC(=O)N[C@H](CC(=O)O)C[N+](C)(C)C)C(=O)N[C@H](C(=O)N[C@@H](Cc2ccc(OCCNC(=O)COCCOCCNC(=O)COCCOCCNC(=O)CC[C@H](NC(=O)CCCCCCCCCCCCCCCCC(=O)O)C(=O)O)cc2)C(=O)N[C@@H](Cc2ccc3ccccc3c2)C(=O)NC2(C(=O)N[C@@H](CCC(=O)O)C(=O)N[C@@H](CC(N)=O)C(=O)N[C@@H](Cc3cccnc3)C(=O)N(C)CC(N)=O)CCOCC2)C(C)(C)SSC1(C)C [compound 13, MeCO-r-Pen(3)-N-T-7MeW-K(d)-Pen(3)-AEF(PEG2gEC18OH)-2Nal-THP-E-N-3Pya-Sar-CONH2] (Ac-[dR][Pen]NT[Trp(7-Me)]K([Suc-X2])[Pen][AEF]([AEEA-AEEA-γGlu-C18 diacid])[2Nal][Thp]EN[3Pal][Sar]-NH2; disulfide 2-7) | 6.30 to 7.30 | 8.30 to 9.30
CC(=O)N(C)CCCC[C@@H]1NC(=O)[C@H](Cc2c[nH]c3c(C)cccc23)NC(=O)[C@H]([C@@H](C)O)NC(=O)[C@H](CC(=O)N(C)C)NC(=O)[C@@H](N)C(C)(C)SSC(C)(C)[C@@H](C(=O)N[C@@H](Cc2ccc(OCCOCCOCC[N+](C)(C)C)cc2)C(=O)N[C@@H](Cc2ccc3ccccc3c2)C(=O)NC2(C(=O)N[C@@H](CCCCN(C)C(C)=O)C(=O)N[C@@H](CC(N)=O)C(=O)N[C@@H](Cc3cccnc3)C(=O)N(C)CC(=O)N[C@@H](CCCCNC(=O)COCCOCCNC(=O)COCCOCCNC(=O)CC[C@H](NC(=O)CCCCCCCCCCCCCCCCC(=O)O)C(=O)O)C(=O)N(C)C)CCOCC2)NC1=O [compound 148, cPEG3aCO-Pen(3)-N(N(Me)2)-T-7MeW-K(NMeAc)-Pen(3)-APEC3F-2Nal-THP-K(NMeAc)-N-3Pya-Sar-K(PEG2PEG2gEC18OH)-CON(Me)2] (H-[Pen]D(NMe2)T[Trp(7-Me)][Lys(Me)](Ac)[Pen]Y(CH2CH2OCH2CH2OCH2CH2NMe3+)[2Nal][Thp][Lys(Me)](Ac)N[3Pal][Sar]K([AEEA-AEEA-γGlu-C18 diacid])-NMe2; disulfide 1-6) | 6.30 to 7.30 | > 9.30

More lines, main results first:

pIC50 (IL-23R) | Compound | pIC50 [1]
> 7.30 | CC(=O)N(C)CCCC[C@@H]1NC(=O)[C@H](Cc2c[nH]c3c(C)cccc23)NC(=O)[C@H]([C@@H](C)O)NC(=O)[C@H](CC(=O)N(C)C)NC(=O)[C@@H](NC(=O)[C@@H](CCCCCC(=O)COCCOCCNC(=O)COCCOCCNC(=O)CC[C@H](NC(=O)CCCCCCCCCCCCCCCCC(=O)O)C(=O)O)CC(=O)CCOCCOCC[N+](C)(C)C)C(C)(C)SSC(C)(C)[C@@H](C(=O)N[C@@H](Cc2ccc(OCCCCC[N+](C)(C)C)cc2)C(=O)N[C@@H](Cc2ccc3ccccc3c2)C(=O)NC2(C(=O)N[C@@H](CCCCN(C)C(C)=O)C(=O)N[C@@H](CC(N)=O)C(=O)N[C@@H](Cc3cccnc3)C(=O)N(C)CC(=O)N(C)C)CCOCC2)NC1=O [compound 131, cPEG3aCO-k(PEG2PEG2gEC18OH)-Pen(3)-N(N(Me)2)-T-7MeW-K(NMeAc)-Pen(3)-TMAPF-2Nal-THP-K(NMeAc)-N-3Pya-Sar-CON(Me)2] (X36-[Pen]D(NMe2)T[Trp(7-Me)][Lys(Me)](Ac)[Pen]Y(X1)[2Nal][Thp][Lys(Me)](Ac)N[3Pal][Sar]-NMe2; disulfide 1-6) | > 9.30
> 7.30 | CC(=O)N(C)CCCC[C@@H]1NC(=O)[C@H](Cc2c[nH]c3c(C)cccc23)NC(=O)[C@H]([C@@H](C)O)NC(=O)[C@H](CC(=O)N(C)C)NC(=O)[C@@H](NC(=O)CCOCCOCCOCCOCCOCCOCCOCCOCCOCCOCCOCCOCCNC(=O)CC[C@H](NC(=O)CCCCCCCCCCCCCCCCC(=O)O)C(=O)O)C(C)(C)SSC(C)(C)[C@@H](C(=O)N[C@@H](Cc2ccc(OCCCCC[N+](C)(C)C)cc2)C(=O)N[C@@H](Cc2ccc3ccccc3c2)C(=O)NC2(C(=O)N[C@@H](CCCCN(C)C(C)=O)C(=O)N[C@@H](CC(N)=O)C(=O)N[C@@H](Cc3cccnc3)C(=O)N(C)CC(=O)N(C)C)CCOCC2)NC1=O [compound 95, HOC18gEPEG12CO-Pen(3)-N(N(Me)2)-T-7MeW-K(NMeAc)-Pen(3)-TMAPF-2Nal-THP-K(NMeAc)-N-3Pya-Sar-CON(Me)2] ({C18 diacid-γGlu-PEG12}-[Pen]D(NMe2)T[Trp(7-Me)][Lys(Me)](Ac)[Pen]Y(X1)[2Nal][Thp][Lys(Me)](Ac)N[3Pal][Sar]-NMe2; disulfide 1-6) | > 9.30
> 7.30 | Cc1cccc2c(C[C@@H]3NC(=O)[C@H]([C@@H](C)O)NC(=O)[C@H](CC(=O)N(C)C)NC(=O)[C@@H](NC(=O)COCCOCCNC(=O)COCCOCCNC(=O)CC[C@H](NC(=O)CCCCCCCCCCCCCCCCC(=O)O)C(=O)O)C(C)(C)SSC[C@@H](C(=O)N[C@@H](Cc4ccc(OCCN)cc4)C(=O)N[C@@H](Cc4ccc5ccccc5c4)C(=O)NC4(C(=O)N[C@@H](CCN(C)C(=O)CCC(=O)N[C@H](CC(=O)O)C[N+](C)(C)C)C(=O)N[C@@H](CC(N)=O)C(=O)N[C@@H](Cc5cccnc5)C(=O)N(C)CC(=O)N(C)C)CCOCC4)NC(=O)[C@H](CCN(C)C(=O)CCC(=O)N[C@H](CC(=O)O)C[N+](C)(C)C)NC3=O)c[nH]c12 [compound 138, HOC18gEPEG2PEG2CO-Pen(3)-N(N(Me)2)-T-7MeW-Dab(NMecarn)-Pen(3)-AEF-2Nal-THP-Dab(NMecarn)-N-3Pya-Sar-CON(Me)2] ({C18 diacid-γGlu-AEEA-AEEA}-[Pen]D(NMe2)T[Trp(7-Me)][X6]([Suc-X2])C[AEF][2Nal][Thp][X6]([Suc-X2])N[3Pal][Sar]-NMe2; disulfide 1-6) | > 9.30
> 7.30 | CC(=O)N(C)CCCC[C@@H]1NC(=O)[C@H](Cc2c[nH]c3c(C)cccc23)NC(=O)[C@H]([C@@H](C)O)NC(=O)[C@H](CCCCNC(=O)CCCCCOCCOCCOCCOCCOCCOCCOCCOCCOCCOCCOCCNC(=O)CC[C@H](NC(=O)CCCCCCCCCCCCCCCCC(=O)O)C(=O)O)NC(=O)[C@@H](NC(=O)CCOCCOCC[N+](C)(C)C)C(C)(C)SSC(C)(C)[C@@H](C(=O)N[C@@H](Cc2ccc(OCCCCC[N+](C)(C)C)cc2)C(=O)N[C@@H](Cc2ccc3ccccc3c2)C(=O)NC2(C(=O)N[C@@H](CCCCN(C)C(C)=O)C(=O)N[C@@H](CC(N)=O)C(=O)N[C@@H](Cc3cccnc3)C(=O)N(C)CC(=O)N(C)C)CCOCC2)NC1=O [compound 116, HOC18gEPEG12CO-Pen(3)-N-T-K(Ac)-Pen(3)-AEF-2Nal-THP-E-N-3Pya-Sar-CONH2] ({Me3N+(CH2)2O(CH2)2O(CH2)2CO}-[Pen]K(X9)T[Trp(7-Me)][Lys(Me)](Ac)[Pen]Y(X1)[2Nal][Thp][Lys(Me)](Ac)N[3Pal][Sar]-NMe2; disulfide 1-6) | > 9.30

Reference: patent US20260250320A1, “LIPIDATED PEPTIDE INHIBITORS OF INTERLEUKIN-23 RECEPTOR” (Janssen Pharmaceutica NV, priority 2023, published 2026)
